Measurements reported in a compilation of properties of binary mixtures (doi:10.1007/s10953-019-00868-0).

Assay: xn = mol fraction of the nth substance listed
Settings: 101.3 kPa

With `NCCNCCN` + CCCC[n+]1ccn(C)c1.F[B-](F)(F)F the viscosity (298.15 K, x2 = 0.051) was 6.71 mPa·s, the viscosity (298.15 K, x2 = 0.1986) was 12.1 mPa·s and the viscosity (298.15 K, x2 = 0.2998) was 17.35 mPa·s. The viscosity (298.15 K, x2 = 0.4992) was 31.5 mPa·s, the viscosity (298.15 K, x2 = 0.6974) was 52.6 mPa·s and the viscosity (298.15 K, x2 = 0.8012) was 67.1 mPa·s. For the same compound, the viscosity (298.15 K, x2 = 0.8948) was 82.6 mPa·s, the viscosity (298.15 K, x2 = 0.9496) was 91.9 mPa·s and the viscosity (303.15 K, x2 = 0) was 4.5 mPa·s. For the same compound, the viscosity (303.15 K, x2 = 0.051) was 5.56 mPa·s, the viscosity (303.15 K, x2 = 0.1986) was 10.27 mPa·s and the viscosity (303.15 K, x2 = 0.3995) was 19.78 mPa·s. It also gave a viscosity (303.15 K, x2 = 0.8012) of 56.4 mPa·s, a viscosity (303.15 K, x2 = 0.9496) of 76.4 mPa·s and a viscosity (308.15 K, x2 = 0) of 3.86 mPa·s. The viscosity (308.15 K, x2 = 0.051) was 4.85 mPa·s, the viscosity (308.15 K, x2 = 0.1986) was 8.94 mPa·s and the viscosity (308.15 K, x2 = 0.3995) was 16.7 mPa·s. It also gave a viscosity (308.15 K, x2 = 0.4992) of 22.15 mPa·s, a viscosity (308.15 K, x2 = 0.5905) of 28.1 mPa·s and a viscosity (308.15 K, x2 = 0.6974) of 36.3 mPa·s. It also gave a viscosity (308.15 K, x2 = 0.8012) of 46 mPa·s, a viscosity (308.15 K, x2 = 0.8948) of 55.7 mPa·s and a viscosity (308.15 K, x2 = 0.9496) of 60.4 mPa·s. For the same compound, the viscosity (313.15 K, x2 = 0) was 3.4 mPa·s, the viscosity (313.15 K, x2 = 0.051) was 4.31 mPa·s and the viscosity (313.15 K, x2 = 0.2998) was 10.9 mPa·s. The viscosity (313.15 K, x2 = 0.5905) was 24.07 mPa·s, the viscosity (313.15 K, x2 = 0.8012) was 38.8 mPa·s and the viscosity (313.15 K, x2 = 0.8948) was 46.5 mPa·s. It also gave a viscosity (313.15 K, x2 = 0.9496) of 49.8 mPa·s, a viscosity (318.15 K, x2 = 0) of 3.05 mPa·s and a viscosity (318.15 K, x2 = 0.1986) of 7.06 mPa·s. For the same compound, the viscosity (318.15 K, x2 = 0.2998) was 9.7 mPa·s, the viscosity (318.15 K, x2 = 0.3995) was 12.77 mPa·s and the viscosity (318.15 K, x2 = 0.4992) was 16.63 mPa·s. For the same compound, the viscosity (318.15 K, x2 = 0.5905) was 20.88 mPa·s, the viscosity (318.15 K, x2 = 0.6974) was 26.6 mPa·s and the viscosity (318.15 K, x2 = 0.8012) was 33.2 mPa·s. The viscosity (318.15 K, x2 = 0.8948) was 39.2 mPa·s, the viscosity (318.15 K, x2 = 0.9496) was 42 mPa·s and the viscosity (323.15 K, x2 = 0) was 2.7 mPa·s. It also gave a viscosity (323.15 K, x2 = 0.051) of 3.55 mPa·s, a viscosity (323.15 K, x2 = 0.1986) of 6.33 mPa·s and a viscosity (323.15 K, x2 = 0.4992) of 14.65 mPa·s. For the same compound, the viscosity (323.15 K, x2 = 0.6974) was 23.13 mPa·s, the viscosity (323.15 K, x2 = 0.8012) was 28.5 mPa·s and the viscosity (323.15 K, x2 = 0.8948) was 33.3 mPa·s. For the same compound, the viscosity (328.15 K, x2 = 0) was 2.45 mPa·s, the viscosity (328.15 K, x2 = 0.051) was 3.2 mPa·s and the viscosity (328.15 K, x2 = 0.1986) was 5.68 mPa·s. For the same compound, the viscosity (328.15 K, x2 = 0.5905) was 15.53 mPa·s, the viscosity (328.15 K, x2 = 0.8012) was 23.39 mPa·s and the viscosity (328.15 K, x2 = 0.8948) was 26.7 mPa·s. It also gave a viscosity (328.15 K, x2 = 0.9496) of 27.2 mPa·s, a viscosity (333.15 K, x2 = 0) of 2.032 mPa·s and a viscosity (333.15 K, x2 = 0.051) of 2.67 mPa·s. For the same compound, the viscosity (333.15 K, x2 = 0.3995) was 8.72 mPa·s, the viscosity (333.15 K, x2 = 0.5905) was 13.88 mPa·s and the viscosity (333.15 K, x2 = 0.8012) was 21.3 mPa·s. The viscosity (333.15 K, x2 = 0.8948) was 24.18 mPa·s.
`CCCC[n+]1ccn(C)c1.F[B-](F)(F)F` + NCCNCCN showed a viscosity (313.15 K, x1 = 1) of 51.4 mPa·s, a viscosity (318.15 K, x1 = 1) of 42.1 mPa·s and a viscosity (323.15 K, x1 = 1) of 34.8 mPa·s. The viscosity (333.15 K, x1 = 1) was 24.7 mPa·s.
